Results on 35 molecules are retold here after ChEMBL document CHEMBL1148297, “Synthesis and biological evaluation of analogues of 7-chloro-4,5-dihydro-4- oxo-8-(1,2,4-triazol-4-yl)-1,2,4-triazolo[1,5-a]quinoxaline-2-carboxylic acid (TQX-173) as novel selective AMPA receptor antagonists” (J Med Chem, 2004).

One may read the Ki as a dissociation constant, usually derived from enzyme kinetics or from competition with a known ligand. Low values mean a stronger hold on the target, high ones a looser hold on the target. As usually defined, the IC50 is the concentration that gives 50% inhibition. The term inhibition denotes the share of the control response that was lost under treatment. Higher therefore signals a strong effect.

In test [1] the target is Glutamate receptor ionotropic, NMDA 1 (Rattus norvegicus, UniProt P35439). Description: Binding affinity towards N-methyl-D-aspartate glutamate receptor 1 (high affinity) of rat cortical synaptic membranes by using [3H]Gly as radioligand.
For test [2], the target named is Glutamate receptor ionotropic, AMPA (Rattus norvegicus, UniProt P19490+P19491+P19492+P19493).
Description: Binding affinity towards ionotropic glutamate receptor (high-affinity) of rat cortical synaptic membranes by using [3H]AMPA as radioligand
In test [3] the target is Glutamate receptor ionotropic, kainate. The test is described as follows: Inhibition concentration towards high-affinity ionotropic glutamate receptor kainate of rat cortical membranes by using [3H]KA as radioligand.
In test [4] the target is Glutamate receptor ionotropic, NMDA 1 (Rattus norvegicus) (UniProt P35439). Description: Percent inhibition of compound at 100 uM towards N-methyl-D-aspartate glutamate receptor 1 (high affinity) of rat cortical synaptic membranes by using [3H]-Gly as radioligand. The format is cell membranes. The settings on record: Membrane.
For test [5], the species on record is Mus musculus. Description: Concentration necessary for 50% inhibition of depolarization induced by 5 uM NMDA in mouse cortical wedge preparation. The format is functional.
The species entered for test [6] is Mus musculus. Description: Concentration necessary for 50% inhibition of depolarization induced by 5 uM S-AMPA in mouse cortical wedge preparation. The format is functional.
A short description of test [7]: Ratio of IC50 of KA low-affinity receptor site to KA high-affinity receptor site.
For test [8], the species on record is Rattus norvegicus. The test is described as follows: Concentration that inhibits 50% S-AMPA stimulated (50 uM) [3H]norepinephrine release from rat hippocampal synaptosomes. The class given is functional. The settings on record: Hippocampus.
In test [9] the target is Glutamate receptor ionotropic, kainate (Rattus norvegicus) (UniProt P22756+Q01812+P42260+P42264+Q63273). Description: Percent inhibition of compound at 100 uM towards high-affinity Ionotropic glutamate receptor kainate of rat cortical membranes by using [3H]KA as radioligand. The class given is cell membranes. The conditions noted are these: Membrane.
In test [10] the target is Glutamate receptor ionotropic, kainate. The test is described as follows: Inhibition concentration towards low-affinity Ionotropic glutamate receptor kainate of rat cortical membranes by using [3H]-KA as radioligand.
The species named for test [11] is Rattus norvegicus. The test is described as follows: Concentration giving 50% inhibition of stimulated [3H](+)-MK-801 binding in rat cortical membranes incubated with 10 uM glutamate and 0.1 uM glycine.

Turning to `O=C(O)c1nc2c(O)nc3cc(C(F)(F)F)c(-n4ccnc4)cc3n2n1`, the results for the inhibition constant (Ki) in [1] and in test [2] were 34 µM and 0.12 µM, respectively. This molecule also yielded a half-inhibitory concentration (IC50) in test [3] of 13 µM.

For `CCOC(=O)c1nc2c(O)nc3cc(C(F)(F)F)c(-n4ccc(C(=O)O)c4)cc3n2n1`, the Ki in [2] turned out to be 0.35 µM. Also, in [3], the 50% inhibitory concentration (IC50) was 12.9 µM. This molecule returned an inhibition in test [4] of 33%.

The molecule `CCOC(=O)c1nc2c(O)nc3cc(C(F)(F)F)c(-n4cnnc4)cc3n2n1` returned a Ki in [2] of 0.2 µM. Also, the IC50 is greater than 150 µM in test [5] (Mus musculus, read-out: IC50); 92 µM in test [3]; 12 µM in test [6]. The molecule further registered an inhibition in test [4] of 42%.

Consider `CCOC(=O)c1nc2c(=O)[nH]c3cc([N+](=O)[O-])c(NC(C)=O)cc3n2n1`, for which the inhibition constant (Ki) stood at 85 µM in [1] and 6.5 µM in test [2]. The same molecule came in with an IC50 in [3] of 41 µM.

Consider `O=C(O)c1nc2c(O)nc3cc([N+](=O)[O-])c(-n4cccc4)cc3n2n1`, for which, in [7], the Ratio turned out to be 0.33. Moreover, the half-maximal inhibitory concentration (IC50) in test [5] (Mus musculus, read-out: IC50) amounted to 50 µM; in [6], 1 µM; in test [8] it was 19 µM.

Regarding `CCOC(=O)c1nc2c(=O)[nH]c3cc(C(F)(F)F)c(N4C(=O)C=C(C=O)C4=O)cc3n2n1`, the Ki worked out at 10.9 µM in test [1] and 12.8 µM in test [2]. Further, in test [3], the IC50 amounted to 42 µM.

`CCOC(=O)c1nc2c(O)nc3cc(Cl)c(-n4cnnc4)cc3n2n1` returned an inhibition in [4] of 15%.

Turning to `CCOC(=O)c1nc2c(O)nc3cc(C(F)(F)F)c(-n4cccc4)cc3n2n1`, the Ki was 75 µM in test [1] and 2.2 µM in test [2]. For the same molecule, the inhibition in test [9] is 5%.

For `Nc1cc2c(cc1[N+](=O)[O-])[nH]c(=O)c1nc(C(=O)O)nn12`, the results for the Ki in test [1] and in test [2] were 2.7 µM and 0.7 µM, respectively. In test [3], the concentration for half-maximal inhibition (IC50) stood at 20 µM.

With `O=C(O)c1ccn(-c2cc3c(cc2C(F)(F)F)[nH]c(=O)c2nc(C(=O)O)nn23)c1`, the Ki in [1] stood at 35 µM; in test [2], 0.037 µM. In addition, the IC50 amounted to 2.6 µM in test [10] and 5.4 µM in test [3].

Take `CCOC(=O)c1nc2c(O)nc3cc([N+](=O)[O-])c(-n4ccc(C(=O)O)c4)cc3n2n1`: the inhibition constant Ki in test [2] was 0.068 µM. Also, in [4], the inhibition was determined as 16%.

For `CCOC(=O)c1nc2c(O)nc3cc([N+](=O)[O-])c(N)cc3n2n1`, the values for the inhibition constant Ki in test [1] and in test [2] were 3.7 µM and 1.2 µM, respectively. In addition, the IC50 in test [3] stood at 69 µM.

For the molecule `CCOC(=O)c1nc2c(O)nc3cc(C(F)(F)F)c(-n4ccc(C=O)c4)cc3n2n1`, the inhibition constant (Ki) in test [1] came to 71 µM; in [2], 0.37 µM. Further, the 50% inhibitory concentration (IC50) entry is “Not Active” in test [5], 31.2 µM in test [3] and 7.8 µM in [6].

As for `O=C(O)c1nc2c(O)nc3cc(C(F)(F)F)c(-n4cccc4)cc3n2n1`, the values for the Ki in test [1] and in test [2] were 8.3 µM and 0.28 µM, respectively. The IC50 in test [11] was 12.7 µM; in test [5] (Mus musculus, read-out: IC50), 80 µM; in test [3], 18.1 µM; in [6] it was 1.5 µM; in [8] it was 11 µM.

As for `CCOC(=O)c1nc2c(=O)[nH]c3cc([N+](=O)[O-])c(-n4cccc4)cc3n2n1`, the Ki turned out to be 84 µM in [1] and 1.4 µM in test [2]. The same molecule returned an IC50 in [3] of 41 µM.

With `Nc1cc2c(cc1C(F)(F)F)nc(O)c1nc(C(=O)O)nn12`, the Ki in [1] was 1.5 µM; in test [2] it was 1.2 µM. Also, in [3], the 50% inhibitory concentration (IC50) came to 24 µM.

For the molecule `CCOC(=O)c1nc2c(O)nc3cc(C(F)(F)F)c([N+](=O)[O-])cc3n2n1`, the inhibition in test [9] stood at 24%.

Turning to `NS(=O)(=O)c1cccc2c1c([N+](=O)[O-])cc1nc(O)c(O)nc12` [NBQX], the IC50 entry in [5] was “Not Active”; in [8] it was 4 µM.

`CCOC(=O)c1nc2c(O)nc3cc([N+](=O)[O-])c(-n4ccc(C=O)c4)cc3n2n1` came in with an inhibition constant Ki in [2] of 0.65 µM. The same molecule came in with a 50% inhibitory concentration (IC50) in test [3] of 44.4 µM. The molecule further gave an inhibition in test [4] of 28%.

Regarding `O=C(O)c1nc2c(=O)[nH]c3cc(C(F)(F)F)c(-n4cnnc4)cc3n2n1`, the figures for the inhibition constant (Ki) in test [1] and in test [2] were 3.6 µM and 0.095 µM, respectively. Moreover, the IC50 stood at 1.8 µM in [10] and 9.6 µM in test [3].

As for `CCOC(=O)c1nc2c(=O)[nH]c3cc(C(F)(F)F)c([N+](=O)[O-])cc3n2n1`, the Ki in [1] came to 62 µM; in test [2], 9 µM.

In the case of `O=C(O)c1nc2c(O)nc3cc(C(F)(F)F)c(-n4cnnc4)cc3n2n1`, the Ratio in test [7] stood at 0.19. For the same molecule, the concentration for half-maximal inhibition (IC50) in [5] (Mus musculus, read-out: IC50) was 60 µM; in test [6], 0.8 µM; in test [8] it was 5.8 µM.

On to `O=C(O)c1ccn(-c2cc3c(cc2C(F)(F)F)nc(O)c2nc(C(=O)O)nn23)c1`, for which, in test [7], the Ratio came out at 0.48. Besides, the IC50 worked out at 60 µM in test [5] (Mus musculus, read-out: IC50); 1.3 µM in test [6]; 7.5 µM in test [8].

Turning to `CCOC(=O)c1nc2c(O)nc3cc(C(F)(F)F)c(N)cc3n2n1`, in [9], the inhibition was found to be 45%.

`CC(=O)Nc1cc2c(cc1[N+](=O)[O-])nc(O)c1nc(C(=O)O)nn12`: the values for the inhibitory constant (Ki) in test [1] and in test [2] were 63 µM and 1.14 µM, respectively. For the same molecule, in test [3], the IC50 was determined as 22.2 µM.

`O=C(O)c1cc(O)c2c(Cl)cc(Cl)cc2n1` registered a Ki in test [1] of 0.09 µM.

For the molecule `O=Cc1ccn(-c2cc3c(cc2C(F)(F)F)nc(O)c2nc(C(=O)O)nn23)c1`, in test [7], the Ratio came to 0.18. In addition, the half-inhibitory concentration (IC50) in test [11] stood at 11 µM; in test [5] (Mus musculus, read-out: IC50) it was 50 µM; in test [6] it was 1 µM; in test [8], 8.1 µM.

Turning to `O=C(O)c1ccn(-c2cc3c(cc2[N+](=O)[O-])nc(O)c2nc(C(=O)O)nn23)c1`, in test [2], the Ki is 0.019 µM. Further, the concentration for half-maximal inhibition (IC50) in [3] stood at 17 µM. In test [4], this molecule displayed an inhibition of 7%.

With `O=Cc1ccn(-c2cc3c(cc2C(F)(F)F)[nH]c(=O)c2nc(C(=O)O)nn23)c1`, the Ki in test [1] came out at 2.6 µM; in test [2] it was 0.12 µM. Also, the IC50 came out at 1 µM in test [10] and 5.6 µM in test [3].

As for `O=C(O)c1nc2c(=O)[nH]c3cc(Cl)c(-n4cnnc4)cc3n2n1` [TQX-173], the values for the IC50 in test [11], in [3] and in [8] were 68 µM, 11.3 µM and 28 µM, respectively.

Turning to `CCOC(=O)c1nc2c(O)nc3cc(C(F)(F)F)c(-n4ccnc4)cc3n2n1`, the Ki in test [1] was 54 µM; in test [2], 0.35 µM. This molecule had a 50% inhibitory concentration (IC50) in test [3] of 71 µM.

Regarding `O=C(O)c1nc2c(=O)[nH]c3cc([N+](=O)[O-])c(-n4cccc4)cc3n2n1`, the inhibition constant Ki in test [1] came to 65 µM; in test [2], 0.088 µM. In addition, the half-inhibitory concentration (IC50) in test [10] amounted to 1.7 µM; in [3], 5.1 µM.

Regarding `CCOC(=O)c1nc2c(=O)[nH]c3cc(C(F)(F)F)c(N)cc3n2n1`, the Ki in [1] and in [2] was 5.5 µM in each case.

In the case of `O=C(O)c1nc2c(=O)[nH]c3cc(C(F)(F)F)c([N+](=O)[O-])cc3n2n1`, the results for the inhibition constant Ki in test [1] and in test [2] were 4.4 µM and 2.35 µM, respectively. The IC50 in test [3] is 43 µM.

With `O=Cc1ccn(-c2cc3c(cc2[N+](=O)[O-])nc(O)c2nc(C(=O)O)nn23)c1`, in test [7], the Ratio stood at 0.15. For the same molecule, the affinity in test [2] corresponds to a Ki of 0.18 µM. For the same molecule, the IC50 in test [5] (Mus musculus, read-out: IC50) came to 52 µM; in test [10], 1.2 µM; in [3], 8.2 µM; in test [6], 3.1 µM; in test [8], 12 µM. This molecule showed an inhibition in test [4] of 43%.
